Reference: PubChem BioAssay (NCI)
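Interpolation was linear, between the two tested concentrations surrounding the appropriate level; five concentrations were tested over 48 hours in 96-well plates. The concentration for full growth arrest is given as TGI.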

Tests used:
Assay in all cases: NCI anticancer screen, dose series, 48 h
BT-549 breast = system: BT-549 breast
CAKI-1 renal = system: CAKI-1 renal
EKVX NSCLC = system: EKVX NSCLC
HS 578T breast = system: HS 578T breast
MDA-MB-435 = system: MDA-MB-435
NCI/ADR-RES ovarian = system: NCI/ADR-RES ovarian
PC-3 prostate = system: PC-3 prostate
RXF 393 renal = system: RXF 393 renal
SF-295 CNS = system: SF-295 CNS
SK-MEL-2 melanoma = system: SK-MEL-2 melanoma
T-47D breast = system: T-47D breast
NCI-H460 lung = system: NCI-H460 lung
SK-MEL-28 melanoma = system: SK-MEL-28 melanoma
SW-620 colon = system: SW-620 colon
U251 CNS = system: U251 CNS
DMS 114 small cell lung = system: DMS 114 small cell lung
HCT-15 colon = system: HCT-15 colon
KM20L2 colon = system: KM20L2 colon
LOX IMVI melanoma = system: LOX IMVI melanoma
XF 498 CNS = system: XF 498 CNS

Row | Compound | TGI (BT-549 breast) [µM] | TGI (CAKI-1 renal) [µM] | TGI (EKVX NSCLC) [µM] | TGI (HS 578T breast) [µM] | TGI (MDA-MB-435) [µM] | TGI (NCI/ADR-RES ovarian) [µM] | TGI (PC-3 prostate) [µM] | TGI (RXF 393 renal) [µM] | TGI (SF-295 CNS) [µM] | TGI (SK-MEL-2 melanoma) [µM] | TGI (T-47D breast) [µM] | TGI (NCI-H460 lung) [µM] | TGI (SK-MEL-28 melanoma) [µM] | TGI (SW-620 colon) [µM] | TGI (U251 CNS) [µM] | TGI (DMS 114 small cell lung) [µM] | TGI (HCT-15 colon) [µM] | TGI (KM20L2 colon) [µM] | TGI (LOX IMVI melanoma) [µM] | TGI (XF 498 CNS) [µM]
1 | Nc1ccc(Oc2ccc(C3(c4ccc(Oc5ccc(N)c(O)c5)cc4)C4CC5CC(C4)CC3C5)cc2)cc1O | 5.27 | 5.03 | 6.16 | 5.32 | 5.22 | 5.91 | 3.18 | 4.51 | 14.9 | 3.88 | > 77.2 | – | – | – | – | – | – | – | – | –
2 | CCOC(=O)/C(C#N)=c1/s/c(=C(\O)N/N=C/c2ccc(OC)cc2)c(=N)n1-c1ccccc1 | – | – | – | – | – | – | – | – | > 100 | – | – | > 100 | > 100 | > 100 | > 100 | – | – | – | – | –
3 | CC(C)OP(=O)(OC(C)C)C(=Nc1ccc(N=C(NNc2ccc([N+](=O)[O-])cc2)P(=O)(OC(C)C)OC(C)C)cc1)NNc1ccc([N+](=O)[O-])cc1 | – | > 100 | > 100 | – | – | – | – | – | – | > 100 | – | – | > 100 | – | > 100 | > 100 | > 100 | > 100 | > 100 | > 100
